“And” between values parts separate entries of the source, which are not always exact repeats. Equal values may be shown once.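 Assay format: 96-well plates, 48-hour exposure. GI50 is the concentration that inhibits growth by half. TGI marks complete inhibition of growth.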
Assays:
Assay in all cases: growth of human tumour cells (NCI), 48 h
ACHN renal = system: ACHN renal
CCRF-CEM leukemia = system: CCRF-CEM leukemia
EKVX NSCLC = system: EKVX NSCLC
IGROV1 ovarian = system: IGROV1 ovarian
KM12 colon = system: KM12 colon
MCF7 breast = system: MCF7 breast
OVCAR-8 ovarian = system: OVCAR-8 ovarian
SW-620 colon = system: SW-620 colon
UO-31 renal = system: UO-31 renal
HCC-2998 colon = system: HCC-2998 colon

SMILES | GI50 (ACHN renal) [µM] | TGI (ACHN renal) [µM] | GI50 (CCRF-CEM leukemia) [µM] | TGI (CCRF-CEM leukemia) | GI50 (EKVX NSCLC) [µM] | TGI (EKVX NSCLC) | GI50 (IGROV1 ovarian) [µM] | TGI (IGROV1 ovarian) | GI50 (KM12 colon) [µM] | TGI (KM12 colon) | GI50 (MCF7 breast) [µM] | TGI (MCF7 breast) | GI50 (OVCAR-8 ovarian) [µM] | TGI (OVCAR-8 ovarian) | GI50 (SW-620 colon) [µM] | TGI (SW-620 colon) | GI50 (UO-31 renal) [µM] | TGI (UO-31 renal) [µM] | TGI (HCC-2998 colon) [µM] | GI50 (HCC-2998 colon) [µM]
c1ccc(Cn2cc3c(c2-c2ccccc2)CCc2cnoc2-3)cc1 | 9.36 | > 100 | 3.59 | > 100 µM | 5.53 | > 100 µM | 5.51 | > 100 µM | 3.27 | 47 µM | 3.44 | > 100 µM | 8.05 | > 100 µM | 3.15 | 53.9 µM | 7.65 | > 100 | – | –
COc1ccc2c(=O)c(C)c(-c3ccccc3)oc2c1CN(C)C | – | > 100 | – | > 100 µM | – | > 100 µM | – | > 100 µM | – | > 100 µM | – | – | – | > 100 µM | – | > 100 µM | – | > 100 | > 100 | –
COc1ccc(C(=O)OCC2OC(n3cnc4c(=S)nc[nH]c43)C(OC(=O)c3ccc(OC)cc3)C2OC(=O)c2ccc(OC)cc2)cc1 (stereo unspecified) | – | > 100 | – | 93.3 µM | – | – | – | > 100 µM | – | > 100 µM | – | – | – | > 100 µM | – | > 100 µM | – | > 100 | > 100 | –
Cc1cc(O)cc2oc(=O)c3c(O)cc(O)cc3c12 | – | 71.1 | – | > 100 µM | – | 75.1 µM | – | 74.7 µM | – | > 100 µM | – | – | – | > 100 µM | – | 49.9 µM | – | > 100 | 40.8 | –
CC1=C(C(=O)Nc2ccc(F)c(Cl)c2)C(c2ccccc2Cl)NC(=S)N1 (stereo unspecified) | 17.5 | > 50 | > 50 | > 50 µM | > 50 | > 50 µM | 22.8 | > 50 µM | 41.9 | > 50 µM | 21.7 | > 50 µM | 42.7 | > 50 µM | > 50 | > 50 µM | 21.3 | > 50 | – | –
Oc1ccccc1-c1nn(CNc2cccc(Cl)c2)c(=S)o1 | – | – | 3.63 | 27.3 µM | 67.2 | > 100 µM | 81.5 | > 100 µM | 37.2 | > 100 µM | 37.9 | > 100 µM | > 100 | > 100 µM | 27.2 | > 100 µM | > 100 | > 100 | – | –
CCOC(=O)/C(O)=C(/c1n[nH]c(=O)c2ccccc12)[N+](=O)[O-] | – | > 100 | – | > 100 µM | – | > 100 µM | – | > 100 µM | – | > 100 µM | – | – | – | > 100 µM | – | > 100 µM | – | > 100 | > 100 | –
Cc1[nH]c2ccccc2c1C1Cc2ccccc2N1C(=O)/C=C/C=C/c1ccccc1 (stereo unspecified) | – | > 100 | – | > 100 µM | – | > 100 µM | – | > 100 µM | – | > 100 µM | – | – | – | > 100 µM | – | > 100 µM | – | > 100 | > 100 | –
CC(=O)[CH-]C(=O)c1ccccc1.CC(=O)[CH-]C(=O)c1ccccc1.CC[O-].CC[O-].[Zr+4] | > 100 | > 100 | 69.7 | > 100 µM | 91.6 | > 100 µM | > 100 | > 100 µM | > 100 | > 100 µM | – | – | > 100 | > 100 µM | > 100 | > 100 µM | > 100 | > 100 | > 100 | > 100
CCCCCCCCCCCCCC(=O)O[C@H]1CC[C@H](NC(=O)[C@H](OC)[C@H](O)[C@@H](O)[C@H](O)/C=C/C(C)C)C(=O)NC1 | – | – | – | 8.44 µM and 10.7 µM | – | 36.8 µM and 23.4 µM | – | 8.51 µM and 2.71 µM | – | 1.19 µM and 7.64 µM | 0.00512 | 8.64 µM and 22.6 µM | 0.00181 | 20.5 µM and 14.3 µM | – | 11.2 µM and 12.8 µM | 0.00883 | 22 | – | –
CN(C)CCNC(=O)c1cc2ccccc2c2nc3ccccc3nc12 | – | 2.1 | – | – | – | 7.37 µM | – | > 20.7 µM | – | 2.89 µM | – | – | – | > 20.4 µM | – | – | – | – | 3.92 | –
Cc1c(Cl)ccc2c1NC(=O)C2(O)C(C(=O)c1ccccc1)c1ccccc1 (stereo unspecified) | – | > 100 | – | 73.8 µM | – | > 100 µM | – | > 100 µM | – | > 100 µM | – | – | – | > 100 µM | – | > 100 µM | – | > 100 | > 100 | –
Nc1nc(N)c(N=O)c(Nc2ccc(O)cc2)n1 | – | > 86.1 | – | > 100 µM | – | > 100 µM | – | 44.8 µM | – | > 100 µM | – | – | – | > 100 µM | – | > 100 µM | – | > 86.7 | > 100 | –
O=S1c2ccccc2N=C(c2ccc3ccccc3c2)CC1C1=CC=CCC1 (stereo unspecified) | – | 42.6 | – | 23.6 µM | – | 42.8 µM | – | 28.9 µM | – | 32.2 µM | – | – | – | 49.4 µM | – | 36.7 µM | – | 26.7 | 26.2 | –
COc1cc2nc(-c3cnc(N(C)C)nc3)nc(NC3CCN(Cc4ccccc4)CC3)c2cc1OC | 0.927 | 2.17 | 0.707 | 3.6 µM | 1.75 | 3.66 µM | 1.73 | 3.43 µM | 1.72 | 3.53 µM | – | – | 1.68 | 3.97 µM | 0.442 | 2 µM | 1.49 | 3.05 | 3.25 | 1.79
COc1cc(/C=C2/C(=O)N(C(=O)OC(C)C)C(Cc3cc(OC)c(OC)c(C)c3OC)C(=O)N2Cc2ccccc2)c(OC)c(C)c1OC (stereo unspecified) | – | > 100 | – | > 100 µM | – | > 100 µM | – | > 100 µM | – | > 100 µM | – | – | – | > 100 µM | – | > 100 µM | – | > 100 | > 100 | –
CCOC(C)C(/C=N/NC(N)=S)=NNC(N)=S (stereo unspecified) | – | > 100 | – | > 100 µM | – | > 100 µM | – | – | – | > 100 µM | – | – | – | > 100 µM | – | > 100 µM | – | > 77.2 | > 100 | –
[O-]c1c2c(nn1-c1ccccc1)c1ccccc1c[n+]2Cc1ccccc1 | – | > 100 | – | > 100 µM | – | > 100 µM | – | > 100 µM | – | > 100 µM | – | – | – | > 100 µM | – | > 100 µM | – | > 100 | > 100 | –
O=S(=O)(/C=C/c1ccc(Cl)cc1Cl)Cc1ccccc1CS(=O)(=O)/C=C/c1ccc(Cl)cc1Cl | – | > 100 | – | > 100 µM | – | > 100 µM | – | > 100 µM | – | > 100 µM | – | – | – | > 100 µM | – | > 100 µM | – | > 100 | > 100 | –

Source: PubChem BioAssay (NCI)
